# Paper PMC3511023, “Peptides presenting the binding site of human CD4 for the HIV-1 envelope glycoprotein gp120” (Beilstein Journal of Organic Chemistry, 2012)
# Entries after “also recorded” stand apart in the source; their conditions may differ. Bridges are numbered along the chain shown (N, C = ends). Where no end group is shown, it is not given here. [ ]: non-standard residue; d: D form.
# System: gp120(MN)
# Assay: not given
# Conditions: CD4-M5 60 µM or sCD4 0.4 µg/mL pre-incubated 10 min with gp120(MN) 0.5 µg/mL; 2 h on X5-coated plate; absorbance at 492 nm; at least twice, each in duplicate
row,Substance,enhancement of binding of gp120(MN) to the CD4i antibody X5
1,"CD4-M5: CD4 residues 34–48, cyclic through a disulfide between added cysteines (His6-CIKILGNQGSFLTKGPC; disulfide 1-17 (inferred))",able to enhance binding of gp120 to the CD4i antibody mAb X5

# System: recombinant gp120 from HIV-1 strain IIIB
# Assay: Direct ELISA: binding of gp120 to His-tagged peptides on Ni-chelate plates
# Conditions: peptide coated at 4 µM on Ni-chelate plates; gp120(IIIB) 0.25 µg/mL, 2 h; absorbance at 492 nm, blank-corrected; Ar relative to CD4-M1 = 1; at least twice, each in duplicate
# Procedure: Antibody buffer: Phosphate buffer pH 7.2 containing 1% BSA and 0.1% Tween 20. The wells of 96-well Ni-Chelate plates from Thermo Scientific were coated overnight at 4 °C with peptide solution (100 µL, 4 µM in coupling buffer). After unspecific binding had been blocked with a blocking buffer (1 h at room temperature, gentle agitation), the plates were washed twice. Plates were then incubated for 2 h with 100 µL/well gp120(IIIB) from ImmunoDiagnostics at 0.25 µg/mL (Figure 3, left), or in serial dilutions starting at 2 µg/mL (Figure 3, right) in sample buffer, and washed four times. Following incubation with 100 µL/well sheep-anti-HIV-1-gp120 (D7324) from Aalto Bio Reagents (1:5000 in antibody buffer) for 1 h at room temperature, plates were washed four times with washing buffer, incubated for 1 h at room temperature with 100 µL/well rabbit-anti-sheep-IgG peroxidase conjugate from Dianova (diluted 1:5000 with antibody buffer), and washed four times with washing buffer. Plates were developed with 100 µL/well substrate solution (1 mg/mL OPD in 0.03% H2O2/H2O) in the dark (approx. 20 min), and the reaction was stopped by addition of 2 M sulfuric acid (50 µL/well). Absorbances (A) were read at 492 nm by using a multichannel photometer (Infinite F200 from Tecan).
# Relative Affinities (Ar) were calculated according to the following formula:
# Ar = (Apeptide – Ablank) / (A1– Ablank)
row,Substance,binding to gp120(IIIB) (relative affinity Ar)
1,CD4-M1: His6-tagged linear peptide presenting CD4 residues 22–64,is recognized by gp120
2,"CD4-M2: His6-tagged cyclic (disulfide) peptide, CD4 residues 22–64, S23C, D63C",strongly enhanced
3,"CD4-M3: CD4 residues 22–64, cyclic, F43A, R58A, R59A, S23C, D63C",largely abrogated; also recorded: complete loss of binding
4,"CD4-M4: His6-tagged linear peptide presenting the CDR2-like loop of CD4, residues 34–48 (His6-IKILGNQGSFLTKGP)",only the longer peptide CD4-M1 is recognized by gp120
5,"CD4-M5: CD4 residues 34–48, cyclic through a disulfide between added cysteines (His6-CIKILGNQGSFLTKGPC; disulfide 1-17 (inferred))",strongly enhanced
6,"CD4-M6: CD4 residues 34–48, cyclic, F43A",largely abrogated
7,"CD4-M7: CD4 residues 34–48, cyclic, F43-D-Phe (His6-CIKILGNQGS[dF]LTKGPC; disulfide 1-17 (inferred))",did not bind to gp120
